Measurements as given in patent US12083191B2, “Composition and methods for imaging cells” (CASE WESTERN RESERVE UNIVERSITY, priority 2009, dated 2024).

Assay: solution-based β-gal activity assay (ONPG hydrolysis)
Assay type: biochemical
Method: For the solution-based activity assay, β-gal fragments were added, either individually or in complementing pairs, to uncoated 96-well microtiter assay plates in equal molar amounts and incubated at room temperature on an orbital rocker for 1 hr. Full-length β-gal (1 mg/ml) was serially diluted to create a standardized concentration curve. At time zero, the assay was initiated by using a 12-channel pipettor to add 20 μl of ONPG (4 mg/ml) to each well of the microplate. In the endpoint assay, the microplates were incubated at room temperature for the appropriate length of time, e.g., 30 min, before the reaction was terminated by the addition of 50 μl of 1 M Na2CO3. Then, the absorbance (420 nm) was read in a Tecan Infinite 200 plate reader (Tecan; San Jose, CA). The absorbance data was transferred to a Microsoft Excel spreadsheet and the amount of ONPG substrate hydrolyzed was calculated.
To test the ability of the split-fragments to spontaneously refold and aggregate into tetramers in solution, complementing pairs of β-gal fragments were combined and assessed in a solution-based activity assay. Levels of active β-gal expression were measured by its catalytic hydrolysis of ortho-nitrophenyl-β-D-galactopyranoside (ONPG), a synthetic chromogenic substrate, to orthonitrophenol (ONP), a yellow product (λmax=420 nm). […]

Full length β-gal: purified full length biotinylated E. coli β-galactosidase prepared in the laboratory, 135 kDa
time at which optimally active (19 hour incubation period, FIG. 7C): 30 min | enzyme activity versus commercially available purchased β-gal (increasing amounts of enzyme, FIG. 7A): virtually identical
